Source: paper PMC7377239, “Cardiovascular Effects of Polychlorinated Biphenyls and Their Major Metabolites” (Environmental Health Perspectives, 2020)
Where two headings read alike, the source gives them in different places.

Legend:
[1] = tested on: iCell endothelial cells (human iPSC-derived ECs); assay: Tube formation (tubulogenesis) assay in iCell endothelial cells, 18 h; format: cell-based; settings: Homo sapiens, Endothelial cell, iPSC-EC tube formation, 18 hr; for activity at 0.1 µM: 0.10 µM; for minimal effective concentration: top concentration 100.00 µM
In short: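 Tube formation was measured by calcein AM imaging after overnight compound exposure (37°C, 0.5% DMSO vehicle) of human iPSC-derived ECs, 7,500/well, on reduced-growth-factor Geltrex in starvation medium. Vehicle-normalized data fitted to four-parameter logistic; POD set at one vehicle SD; without response, 100 μM taken as NOAEL.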

[2] = tested on: iCell endothelial cells (human iPSC-derived ECs); assay: High-content imaging cytotoxicity in iCell endothelial cells, 24 h; format: cell-based; settings: Homo sapiens, Endothelial cell, iPSC-EC, 24 hr; for viability at 0.1 µM / activity at 0.1 µM: 0.10 µM; for minimal effective concentration: top concentration 100.00 µM
In short: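 Readouts were vehicle-normalised and fitted to a four-parameter logistic model. POD was set at one SD beyond 0.5% DMSO control means, and 100 µM was assigned when no response was seen. Cells were monolayers of iCell endothelial cells imaged after 24 h compound exposure using nuclear, mitochondrial and calcein dyes.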

[3] = 0.00 µM control = 100.00, read-out: endo.mtl.18hr
[4] = 0.00 µM control = 100.00, read-out: endo.tlps.18hr
[5] = 0.00 µM control = 100.00, read-out: endo.tta.18hr
[6] = 0.00 µM control = 100.00, read-out: endo.ttl.18hr
[7] = 0.00 µM control = 100.00, read-out: endo.cyto.24hr
[8] = 0.00 µM control = 100.00, read-out: endo.mito.24hr
[9] = 0.00 µM control = 100.00, read-out: endo.mitoint.24hr
[10] = 0.00 µM control = 100.00, read-out: endo.nma.24hr
[11] = 0.00 µM control = 100.00, read-out: endo.tc.24hrs
[12] = read-out: endo.mitoint.24hr POD

Oc1ccc(-c2cccc(Cl)c2)cc1Cl [4-OH PCB11]
activity at 0.01 µM [1, 3]: 108%
activity at 0.01 µM [1, 4]: 105%
activity at 0.01 µM [1, 5]: 164%
activity at 0.01 µM [1, 6]: 164%
activity at 0.1 µM [1, 3]: 111%
activity at 0.1 µM [1, 4]: 99.3%
activity at 0.1 µM [1, 5]: 131%
activity at 0.1 µM [1, 6]: 135%
activity at 1 µM [1, 3]: 106%
activity at 1 µM [1, 4]: 114%
activity at 1 µM [1, 5]: 144%
activity at 1 µM [1, 6]: 144%
activity at 10 µM [1, 3]: 95.5%
activity at 10 µM [1, 4]: 119%
activity at 10 µM [1, 5]: 87.6%
activity at 10 µM [1, 6]: 85.5%
activity at 100 µM [1, 3]: 52.6%
activity at 100 µM [1, 4]: 14.8%
activity at 100 µM [1, 5]: 9.99%
activity at 100 µM [1, 6]: 11.5%
minimal effective concentration ([1]; read-out: endo.mtl.18hr POD): 17.7 µM
minimal effective concentration ([1]; read-out: endo.tlps.18hr POD): 52.5 µM
minimal effective concentration ([1]; read-out: endo.tta.18hr POD): 15.8 µM
minimal effective concentration ([1]; read-out: endo.ttl.18hr POD): 16.1 µM
viability at 0.01 µM [2, 7]: 99.5%
activity at 0.01 µM [2, 8]: 99.5%
activity at 0.01 µM [2, 9]: 103%
activity at 0.01 µM [2, 10]: 103%
viability at 0.01 µM [2, 11]: 99.5%
viability at 0.1 µM [2, 7]: 102%
activity at 0.1 µM [2, 8]: 102%
activity at 0.1 µM [2, 9]: 94.9%
activity at 0.1 µM [2, 10]: 99.2%
viability at 0.1 µM [2, 11]: 102%
viability at 1 µM [2, 7]: 97.1%
activity at 1 µM [2, 8]: 96.8%
activity at 1 µM [2, 9]: 97.1%
activity at 1 µM [2, 10]: 102%
viability at 1 µM [2, 11]: 97.1%
viability at 10 µM [2, 7]: 106%
activity at 10 µM [2, 8]: 106%
activity at 10 µM [2, 9]: 92.4%
activity at 10 µM [2, 10]: 97.2%
viability at 10 µM [2, 11]: 106%
viability at 100 µM [2, 7]: 57.3%
activity at 100 µM [2, 8]: 52.7%
activity at 100 µM [2, 9]: 68%
activity at 100 µM [2, 10]: 88%
viability at 100 µM [2, 11]: 78.1%
minimal effective concentration ([2]; read-out: endo.cyto.24hr POD): 43.6 µM
minimal effective concentration ([2]; read-out: endo.mito.24hr POD): 43.6 µM
minimal effective concentration [2, 12]: 13 µM
minimal effective concentration ([2]; read-out: endo.nma.24hr POD): 9.66 µM
minimal effective concentration ([2]; read-out: endo.tc.24hrs POD): 62.1 µM

Oc1cc(Cl)c(-c2cc(Cl)ccc2Cl)cc1Cl [4-OH PCB52]
activity at 0.01 µM [1, 3]: 114%
activity at 0.01 µM [1, 4]: 107%
activity at 0.01 µM [1, 5]: 144%
activity at 0.01 µM [1, 6]: 144%
activity at 0.1 µM [1, 3]: 119%
activity at 0.1 µM [1, 4]: 109%
activity at 0.1 µM [1, 5]: 116%
activity at 0.1 µM [1, 6]: 125%
activity at 1 µM [1, 3]: 111%
activity at 1 µM [1, 4]: 129%
activity at 1 µM [1, 5]: 118%
activity at 1 µM [1, 6]: 124%
activity at 10 µM [1, 3]: 84.5%
activity at 10 µM [1, 4]: 70.9%
activity at 10 µM [1, 5]: 86%
activity at 10 µM [1, 6]: 85.7%
activity at 100 µM [1, 3]: 0%
activity at 100 µM [1, 4]: 0%
activity at 100 µM [1, 5]: 0%
activity at 100 µM [1, 6]: 0%
minimal effective concentration ([1]; read-out: endo.mtl.18hr POD): 9.52 µM
minimal effective concentration ([1]; read-out: endo.tlps.18hr POD): 8.32 µM
minimal effective concentration ([1]; read-out: endo.tta.18hr POD): 15 µM
minimal effective concentration ([1]; read-out: endo.ttl.18hr POD): 15.2 µM
viability at 0.01 µM [2, 7]: 96.8%
activity at 0.01 µM [2, 8]: 96.3%
activity at 0.01 µM [2, 9]: 90.5%
activity at 0.01 µM [2, 10]: 104%
viability at 0.01 µM [2, 11]: 96.8%
viability at 0.1 µM [2, 7]: 94.9%
activity at 0.1 µM [2, 8]: 94.5%
activity at 0.1 µM [2, 9]: 89.8%
activity at 0.1 µM [2, 10]: 104%
viability at 0.1 µM [2, 11]: 94.9%
viability at 1 µM [2, 7]: 101%
activity at 1 µM [2, 8]: 101%
activity at 1 µM [2, 9]: 88.2%
activity at 1 µM [2, 10]: 103%
viability at 1 µM [2, 11]: 101%
viability at 10 µM [2, 7]: 98%
activity at 10 µM [2, 8]: 98%
activity at 10 µM [2, 9]: 98.3%
activity at 10 µM [2, 10]: 103%
viability at 10 µM [2, 11]: 98%
viability at 100 µM [2, 7]: 42.3%
activity at 100 µM [2, 8]: 39.7%
activity at 100 µM [2, 9]: 51.4%
activity at 100 µM [2, 10]: 89.3%
viability at 100 µM [2, 11]: 49.3%
minimal effective concentration ([2]; read-out: endo.cyto.24hr POD): 13.2 µM
minimal effective concentration ([2]; read-out: endo.mito.24hr POD): 13.2 µM
minimal effective concentration [2, 12]: 43.8 µM
minimal effective concentration ([2]; read-out: endo.nma.24hr POD): 63.5 µM
minimal effective concentration ([2]; read-out: endo.tc.24hrs POD): 16.6 µM
